Results reported in patent US10925923B2, “Peptide having anti-inflammatory activity, and use thereof” (CAREGEN CO., LTD., priority 2016, dated 2021).
Where no end group is shown, it is not given here.

How the values were obtained:
INF-γ = assay: ELISA (splenocytes), INF-γ secretion; type: cell-based, mice; conditions: LPS stimulator, 48 hours
Description: (§1) The splenocytes treated with the peptide samples and the stimulator LPS in example 1 were incubated for 48 hours, and then the culture media were collected. The obtained media were subjected to an experiment using an ELISA kit (R&D system) for cytokines (TNF-α and INF-γ) to be investigated.

CD3+ and CD25+ cells = assay: Activation T cell analysis (FACS), CD3 and CD25 markers; type: cell-based, mice; conditions: splenocytes, LPS stimulator, 24 hours
Description: The cells were treated with the peptide samples and the stimulator LPS as described in example 1, and after 24 hours, the cells were treated with antibody (CD3 and CD25) activation T cell markers for 30 minutes, followed by washing twice with PBS, and then FACS was conducted.

COX2 = assay: Western blot of COX2 in splenocytes; type: cell-based, mice; conditions: peptide 0.2-20 ug/ml, 24 hours
Description: The splenocytes obtained in example 1 were seeded in 24-well plate at cell density of 1×10^7 cells/well. Then, after incubation overnight, the cells were treated with the peptides of SEQ ID NO: 1, SEQ ID NO: 2 and SEQ ID NO: 3 with different concentrations (0.2-20 ug/ml), followed by incubation in an incubator at 37° C. for 24 hours, and then the cells were treated with cell lysis buffer to secure lysate, followed by protein quantification. Then, western blotting with respect to the inflammation inducing factor COX2 was conducted, and the results are shown in FIGS. 2a to 2f.

IL-2 = IL-2 RT-PCR in LPS-stimulated splenocytes; type: cell-based, mice; conditions: mouse splenocytes, LPS stimulator, peptide 0.2, 2, 20 ug/ml
TNF-α [1] = assay: ELISA (splenocytes), TNF-α secretion; type: cell-based, mice; conditions: LPS stimulator, 48 hours
Description: as §1

Raw264.7 cells = assay: FACS intracellular ROS assay (DCF-DA); type: cell-based; conditions: pre-treated at 1, 10, 50 ug/ml, then LPS
Description: Raw264.7 cells were seeded at 1×10^6 cells/6-well, and incubated overnight. The cells were pre-treated with samples to be investigated at 1, 10, and 50 ug/ml, and after 30 minutes, the cells were treated with LPS. The cells were incubated according to the scheduled time point, and then 30 minutes after the treatment with DCF-DH, the oxidation activity was measured by the degree of fluorescence using FACS.

TNF-α [2] = assay: TNF-α RT-PCR in LPS-stimulated splenocytes; type: cell-based, mice; conditions: mouse splenocytes, LPS stimulator, peptide 0.2, 2, 20 ug/ml
Description: [The procedure below names another target; the source lists this target under the same test.] After 6-7-week-old mice were sacrificed to obtain spleen, the spleen was crushed using a cell filter, and centrifuged with serum-free RPMI 1640 medium. The upper layer was discarded, and for removal of red blood cells (RBC), RBC lysis buffer was used.
RBC was removed twice, followed by washing with serum-free RPMI1640 medium, and then an appropriate amount of serum-free RPMI1640 medium was added.
The cells were counted, and seeded in 96-well plate (1×10^6 cells/well) and 24-well plate (1×10^7 cells/dish). The next day, the cells were treated with respective peptide samples (0.2, 2, 20 ug/ml) and the stimulator LPS. Here, the experiment was performed by adjusting the time point.
Total RNA was extracted using Easy Blue (Intron). For synthesis of single-stranded DNA from RNA, RT premix (Intron) was used, and 3 ug of RNA, 2 ug of random hexamer, and DEPC-treated water were added thereto to reach a total volume of 20 ul, followed by reaction for 5 minutes at 65° C. and 1 hour at 42° C. Heating was again conducted at 95° C. for 5 minutes to prepare cDNA.
PCR was conducted by mixing 3 ul of cDNA and 10 pmole primers specific to CGI 58 gene with PCR premix (Intron). PCR conditions were: 94° C. for 30 seconds, 55-56° C. for 30 seconds, and 72° C. for 30 seconds. Genes were analyzed in the conditions in which the PCR results could be exponentially amplified. 5 ul of PCR product was obtained, electrophoresed on 1% agarose gel, and stained with ethidium bromide.

TNF-α [3] = assay: ELISA (Raw264.7 cells), TNF-α secretion; type: cell-based; conditions: pre-treated at 0.2, 2, 20 ug/ml, then LPS, 24 hours
Description: Raw264.7 cells were seeded at 1×10^6 cells/48-well, and incubated overnight. The cells were pre-treated with samples to be investigated at 0.2, 2, and 20 ug/ml, and after 30 minutes, the cells were treated with LPS. Incubation was conducted at the scheduled time point. After 24 hours, the culture media were collected, and the obtained media were subjected to an experiment using an ELISA kit (R&D system) for cytokine (TNF-α) to be investigated.

| Substance | secretion of INF-γ in splenocytes (ELISA) (INF-γ) | CD3+ and CD25+ cells (FACS) (CD3+ and CD25+ cells) | expression of COX2 (western blot) (COX2) | expression of IL-2 (RT-PCR) (IL-2) | secretion of TNF-α in splenocytes (ELISA) (TNF-α [1]) | ROS production (Raw264.7 cells) | expression of TNF-α (RT-PCR) (TNF-α [2]) | secretion of TNF-α in RAW264.7 cells (ELISA) (TNF-α [3]) |
| --- | --- | --- | --- | --- | --- | --- | --- | --- |
| Asp-Asn-Cys-Leu-Arg (DNCLR) [SEQ ID NO: 2] | decreased | decreased | reduced | tend to decrease | decreased | reduced | tend to decrease | tended to decrease |
| GVQHQASPY [SEQ ID NO: 3] |  | decreased | reduced | tend to decrease |  | reduced | tend to decrease | decreased |
| Thr-Met-Arg-Asp (TMRD) [SEQ ID NO: 1] | decreased | decreased | reduced | tend to decrease | decreased | reduced | tend to decrease | tended to decrease |
